Data published in patent US7101872B2, “Farnesyl dibenzodiazepinone, and processes for its production” (Ecopia BioSciences, Inc., priority 2003, dated 2006).

Key:
Test in all cases: NCI panel SRB growth inhibition
Format in all cases: cell-based
T-47D = conditions: Homo sapiens, T47D, Breast, 48 h
Method: (§1) The operation of this unique screen utilizes […] different human tumor cell lines, representing leukemia, melanoma and cancers of the lung, colon, brain, ovary, breast, prostate, and kidney.
(§2) Culture conditions and plating: The human tumor cell lines of the cancer-screening panel were grown in RPMI 1640 medium containing 5% fetal bovine serum and 2 mM L-glutamine. For a typical screening experiment, cells were inoculated into 96 well microtiter plates in 100 μL at plating densities ranging from 5,000 to 40,000 cells/well depending on the doubling time of individual cell lines (Table 5). After cell inoculation, the microtiter plates were incubated at 37° C., 5% CO2, 95% air and 100% relative humidity for 24 h prior to addition of experimental drugs. After 24 h, two plates of each cell line were fixed in situ with TCA, to represent a measurement of the cell population for each cell line at the time of drug addition (Tz). Evaluation of inhibitory activity on cell proliferation: ECO-04601 was provided as a lyophilized powder with an estimated purity of 90+%. The compound was stored at −20° C. until day of use. ECO-04601 was solubilized in dimethyl sulfoxide at 400-fold the desired final maximum test concentration. At the time of drug addition, an aliquot of frozen concentrate was thawed and diluted to twice the desired final maximum test concentration with complete medium containing 50 μg/mL gentamicin. Additional four, 10-fold or Y2 log serial dilutions were made to provide a total of five drug concentrations plus control. Aliquots of 100 μl of these different drug dilutions were added to the appropriate microtiter wells already containing 100 μl of medium, resulting in the required final drug concentrations (8.0×10^−5 M to 8.0×10^−9 M).
(§3) Following drug addition, the plates were incubated for an additional 48 h at 37° C., 5% CO2, 95% air, and 100% relative humidity. For adherent cells, the assay was terminated by the addition of cold TCA. Cells were fixed in situ by the gentle addition of 50 μl of cold 50% (w/v) TCA (final concentration, 10% TCA) and incubated for 60 minutes at 4° C. Supernatants were discarded, and the plates were washed five times with tap water and air-dried. Sulforhodamine B (SRB) solution (100 μl) at 0.4% (w/v) in 1% acetic acid was added to each well, and plates were incubated for 10 minutes at room temperature. After staining, unbound dye was removed by washing five times with 1% acetic acid and the plates were air-dried. Bound stain was subsequently solubilized with 10 mM trizma base, and the absorbance was read on an automated plate reader at a wavelength of 515 nm. For suspension cells, the methodology was the same except that the assay was terminated by fixing settled cells at the bottom of the wells by gently adding 50 μl of 80% TCA (final concentration, 16% TCA).
(§4) The growth inhibitory activity of ECO-04601 was measured by NCI utilizing the GI50 value, rather than the classical IC50 value.

CAKI-1 = conditions: Homo sapiens, CAKI-1, Renal, 48 h
Method: as §1, §2, §3, §4

OVCAR-4 = conditions: Homo sapiens, OVCAR-4, Ovarian, 48 h
Method: as §1, §2, §3, §4

SNB-19 = conditions: Homo sapiens, SNB-19, CNS, 48 h
Method: as §1, §2, §3, §4

SK-MEL-5 = conditions: Homo sapiens, SK-MEL-5, Melanoma, 48 h
Method: as §1, §2, §3, §4

HS 578T = conditions: Homo sapiens, Breast, 48 h
Method: as §1, §2, §3, §4

UO-31 = conditions: Homo sapiens, UO-31, Renal, 48 h
Method: as §1, §2, §3, §4

NCI-H522 = conditions: Homo sapiens, NCI-H522, Non-Small Cell Lung, 48 h
Method: as §1, §2, §3, §4

OVCAR-5 = conditions: Homo sapiens, OVCAR-5, Ovarian, 48 h
Method: as §1, §2, §3, §4

MDA-MB-231/ATCC = conditions: Homo sapiens, Breast, 48 h
Method: as §1, §2, §3, §4

SW-620 = conditions: Homo sapiens, SW-620, Colon, 48 h
Method: as §1, §2, §3, §4

ACHN = conditions: Homo sapiens, Renal, 48 h
Method: as §1, §2, §3, §4

NCI/ADR-RES = conditions: Homo sapiens, Breast, 48 h
Method: as §1, §2, §3, §4

786-0 = conditions: Homo sapiens, 786-0, Renal, 48 h
Method: as §1, §2, §3, §4

NCI-H460 = conditions: Homo sapiens, NCI-H460, Non-Small Cell Lung, 48 h
Method: as §1, §2, §3, §4

NCI-H23 = conditions: Homo sapiens, NCI-H23, Non-Small Cell Lung, 48 h
Method: as §1, §2, §3, §4

SK-MEL-2 = conditions: Homo sapiens, SK-MEL-2, Melanoma, 48 h
Method: as §1, §2, §3, §4

SF-268 = conditions: Homo sapiens, SF-268, CNS, 48 h
Method: as §1, §2, §3, §4

U251 = conditions: Homo sapiens, U-251, U251, CNS, 48 h
Method: as §1, §2, §3, §4

OVCAR-3 = conditions: Homo sapiens, OVCAR-3, Ovarian, 48 h
Method: as §1, §2, §3, §4

HCT-116 = conditions: Homo sapiens, HCT-116, Colon, 48 h
Method: as §1, §2, §3, §4

UACC-62 = conditions: Homo sapiens, UACC-62, Melanoma, 48 h
Method: as §1, §2, §3, §4

SF-539 = conditions: Homo sapiens, SF-539, CNS, 48 h
Method: as §1, §2, §3, §4

HT29 = conditions: Homo sapiens, HT-29, HT29, Colon, 48 h
Method: as §1, §2, §3, §4

HOP-62 = conditions: Homo sapiens, HOP-62, Non-Small Cell Lung, 48 h
Method: as §1, §2, §3, §4

BT-549 = conditions: Homo sapiens, BT-549, Breast, 48 h
Method: as §1, §2, §3, §4

CC(C)=CCC/C(C)=C/CC/C(C)=C/CN1C(=O)c2cccc(O)c2Nc2c(O)cc(O)cc21 [ECO-04601, 10-farnesyl-4,6,8-trihydroxy-dibenzodiazepin-11-one]
GI50 (T-47D): 0.77 µM
GI50 (CAKI-1): 15.2 µM
GI50 (OVCAR-4): 9.67 µM
GI50 (SNB-19): 2.9 µM
GI50 (SK-MEL-5): 7.8 µM
GI50 (HS 578T): 2.76 µM
GI50 (UO-31): 19.7 µM
GI50 (NCI-H522): 3.44 µM
GI50 (OVCAR-5): 2.81 µM
GI50 (MDA-MB-231/ATCC): 2.72 µM
GI50 (SW-620): 2.72 µM
GI50 (ACHN): 3.1 µM
GI50 (NCI/ADR-RES): 18.3 µM
GI50 (786-0): 6.99 µM
GI50 (NCI-H460): 13.6 µM
GI50 (NCI-H23): 2.02 µM
GI50 (SK-MEL-2): 25 µM
GI50 (SF-268): 4.94 µM
GI50 (U251): 2.19 µM
GI50 (OVCAR-3): 13.5 µM
GI50 (HCT-116): 2.92 µM
GI50 (UACC-62): 1.55 µM
GI50 (SF-539): 0.0075 µM
GI50 (HT29): 20.7 µM
GI50 (HOP-62): 8.29 µM
GI50 (BT-549): 0.11 µM
